The source of these data is patent US20260102415A1, “COMPOSITIONS COMPRISING PRODRUGS OF HYDROXAMATE-BASED COMPOUNDS AND METHODS OF MAKING AND USING SAME” (Duke University, priority 2022, published 2026).

Converted amounts (≈) assume the structure as drawn.

Data set [1] concerns Acinetobacter baumannii (ATCC 19606). The experiment in a line: Acinetobacter baumannii sepsis model in mice (survival). To be noted: CD-1 mice; for overall survival: separate experiment comparing prodrug with parent compound; for mice surviving during treatment and post-treatment observation periods: dose response study. The class given is in vivo. The method, then: A mice model was created to test the efficacy of LPC-233-Phos-Pro in an Acinetobacter baumannii sepsis model.
Method: Overnight culture of A. baumannii 19606 was inoculated into 50 mL fresh LB with 1:100 dilution. The culture was incubated at 37° C. with vigorous shaking until OD600 reached ˜0.5. The bacteria were harvested, washed, and re-suspended in PBS pH 7.4 buffer. Each CD-1 mouse at the age of 6-7 weeks was injected with about […] Acinetobacter baumannii (ATCC 19606) in a volume of 200 μL intraperitoneally. There were ten mice in each group (five male and five female). About 2 hours post infection, 200 μL of vehicle (5% Captisol dissolved in saline), or LPC-233-Phos-Pro in 5% Captisol at specified concentrations were injected intraperitoneally. 12 hours later, 200 μL of vehicle control or LPC-233-Phos-Pro solutions at desired concentrations were administrated via intraperitoneal injections every 12 hours (Q12H) for a total of ten IP injections. The mice were monitored for an additional 10 days and the percentages of survival were recorded. The same procedure was used in a separate experiment to compare the efficacy of LPC-233 and LPC-233-Phos-Pro.

The nature of data set [2]: Vehicle (Captisol or beta-cyclodextrin) concentration needed to formulate the 100 mg/kg dose. The note with it: dose level 100 mg/kg. The class given is physicochemical. The procedure:
LPC-233 required 30-40% Captisol or beta-cyclodextrin to reach the dose level of 100 mg/kg and beyond. These concentrations of vehicle caused vehicle-related side effects and cannot be used in clinical formulations.

Data set [3] in a line: Maximum solubility in 5% Captisol by UV-Vis spectroscopy. The data set is classed as physicochemical. The note with it: aqueous with cosolvent or surfactant or cyclodextrin, thermodynamic from solid, absorption at 290 nm, triplicate, averaged. The procedure:
Maximum solubility of LPC233-phosphate-ProDrug was determined using UV-Vis spectroscopy. First, a sample of LPC-233-Phos-Pro in 5% Captisol was prepared at 1 mg/mL by dissolving 0.7 mg of compound in 700 μL of 5% Captisol and sonicating for 30 minutes. The sample was then serial diluted 2-fold to generate standard solutions ranging from 0.0625-1 mg/mL. The absorption of each sample at 290 nm was determined via nanodrop, and the values were plotted to generate a linear standard curve of y=3.0336x+0.09 with r^2=0.998 (v=Abs290 nm, x=[drug]mg/mL). Next, a sample of LPC-233-Phos-Pro was prepared based on an assumed concentration of 300 mg/mL in 5% Captisol and allowed to sonicate for 45 minutes. The sample was then vortexed and centrifuged to pellet any undissolved compound. The supernatant was removed and diluted an initial 30× to a theoretical max concentration of 10 mg/mL. From here, the solution was serial diluted 2-fold up to 256×. The absorption of each dilution at 290 nm was measured via nanodrop and values were plotted to the standard curve. These preparations and measurements were performed in triplicate and averaged. The final maximum solubility of LPC-233-Phos-Pro in 5% Captisol was determined to be ˜260±6 mg/mL. […]

Data set [4] can be described thus: Maximum Tolerated 5-day Repeat dose in male CD-1 mice. The data set is classed as in vivo. To be noted: 250 mg/kg/Q12H (500 mg/kg/day) IP over 5 days, 5% Captisol. The procedure: Additionally, the Maximum Tolerated 5-day Repeat dose of LPC-233-Phos-Pro was tested in male CD-1 mice (n=3). LPC-233-Phos-Pro was prepared in 5% Captisol and 200 μL of solution was administered via IP injection every 12 hours (Q12H) at doses of 250 mg/kg/Q12H (500 mg/kg/day) over the course of 5 days. The mice were weighed daily to monitor animal survival and weight loss.

Usually solubility stands for how much of the substance goes into solution per volume. A higher solubility goes with a readily soluble substance.

Consider `C[C@@](O)(C(F)F)[C@H](NC(=O)c1ccc(C#CC#CC2CC2)cc1)C(=O)NO` [LPC-233, reference compound], for which, in data set [1] (100 mg/kg Q12H IP), the overall survival is recorded as 70%. In addition, the “Captisol or beta-cyclodextrin concentration required to reach the dose level of 100 mg/kg” value in data set [2] is recorded as 30-40%. Besides, the solubility at 45 min in data set [3] was ~20 mg/mL (≈ 53.1 mM).
On to `C[C@@](O)(C(F)F)[C@H](NC(=O)c1ccc(C#CC#CC2CC2)cc1)C(=O)NOP(=O)([O-])[O-].[Na+].[Na+]` [LPC-233-Phos-Pro], for which, in data set [1] (30 mg/kg Q12H IP), the “mice surviving during treatment and post-treatment observation periods” value was 90%. In addition, in data set [1] (100 mg/kg Q12H IP), the “mice surviving during treatment and post-treatment observation periods” value is reported as “all mice”; the overall survival is on record as 100%. Further, the “fitted ED50 (survival)” value in data set [1] (IP infection with A. baumannii 19606, IP dosing Q12H, ten injections, in 5% Captisol, dose response study 10, 30, 100 mg/kg) was 5.5 mg/kg Q12H. Also, the “Captisol or beta-cyclodextrin concentration required to reach the dose level of 100 mg/kg” value in data set [2] came to 5%. Further, the solubility at 45 min in data set [3] was ~260 mg/mL. Further, in data set [4], the animal survival entry is reported as “All mice survived” and the weight loss is given as < 10 % of initial body weight.
